# Reference: US8436003B2, “Substituted imidazo- and triazolopyrimidines, imidazo- and pyrazolopyrazines and imidazotriazines” (Bayer Intellectual Property GmbH, priority 2008, dated 2013)
# Target: T1, GSK3β (Homo sapiens, UniProt P49841)
# T1 construct: purchased Upstate 14-306
# Assay: In vitro biochemical GSK3β inhibition assay (coupled pyruvate kinase/lactate dehydrogenase, NADH fluorescence)
# Conditions: 5 nM GSK3β, 40 μM GSK3β substrate GSM, 50 μM ATP, 30° C. for 2 hours
# Description: The inhibitory activity of active substances is determined in a biochemical assay. The ingredients required for this purpose are mixed in a black 384-well microtitre plate with transparent base (from Greiner, catalogue number 781092). The requirements in this connection for each well of the 384-well microtitre plate are 5 nM GSK3β (from Upstate, catalogue number 14-306), 40 μM GSK3β substrate GSM (sequence H-RRRPASVPPSPSLSRHS-(pS)-HQRR, from Upstate, catalogue number 2-533), 30 μM nicotinamide adenine dinucleotide NADH (Roche Diagnostics, catalogue number 10107735), 50 μM adenosine triphosphate ATP (from Sigma, catalogue number A7966), 2 mM phosphoenolpyruvate (from Roche, catalogue number 128112), and also about 1 U/ml of pyruvate kinase and about 1 U/ml of lactate dehydrogenase, which are present together in a stock formulation (from Roche, catalogue number 10737291001, suspension with about 450 U/ml of pyruvate kinase activity, about 450 U/ml of lactate dehydrogenase activity in […] ammonium sulphate solution pH 6), where 1 unit pyruvate kinase converts, at pH 7.6 and 37° C., 1 μmol of phosphoenolpyruvate into pyruvate per minute, and where 1 unit of lactate dehydrogenase reduces, at pH 7.5 and 37° C., 1 μmol of pyruvate to lactate per minute. The required reaction buffer in which the biochemical reaction takes place consists of 50 mM Trizma hydrochloride Tris-HCl pH: 7.5 (from Sigma, catalogue number T3253), 5 mM magnesium chloride MgCl2 (from Sigma, catalogue number M8266), 0.2 mM DL-dithiothreitol DTT (from Sigma, catalogue number D9779), 2 mM ethylenediaminetetraacetic acid EDTA (from Sigma, catalogue number E6758), 0.01% Triton X-100 (from Sigma, catalogue number T8787) and 0.05% bovine serum albumin BSA (from Sigma, catalogue number B4287).
# Active substances are dissolved in dimethyl sulfoxide DMSO (from Sigma, catalog number D8418) in a concentration of 10 mM. Active substances are added in serial concentrations of 10 μM, 1 μM, 0.1 μM, 0.01 μM, 0.001 μM, 0.0001 μM, 0.00001 μM, 0.000001 μM to the mixtures of the biochemical reaction. As control, dimethyl sulfoxide is added instead of substance in a final concentration of 0.1%.
# The reaction is incubated at 30° C. for 2 hours and then the resulting fluorescence is measured in a Tecan Safire-XFLUOR4 instrument, version V4.50 (serial number 12901300283) with the specifications: measurement mode—fluorescence measured from below, extinction wavelength 340 nm, emission wavelength 465 nm, slit width extinction 5 nm, slit width emission 5 nm, gain mode 120, delay 0 μs, number of light flashes per measurement 3, and an integration time of 40 μs.
# The activity of the active substances is calculated in relation to these 0% and 100%.
# T1 sequence (P49841 whole entry): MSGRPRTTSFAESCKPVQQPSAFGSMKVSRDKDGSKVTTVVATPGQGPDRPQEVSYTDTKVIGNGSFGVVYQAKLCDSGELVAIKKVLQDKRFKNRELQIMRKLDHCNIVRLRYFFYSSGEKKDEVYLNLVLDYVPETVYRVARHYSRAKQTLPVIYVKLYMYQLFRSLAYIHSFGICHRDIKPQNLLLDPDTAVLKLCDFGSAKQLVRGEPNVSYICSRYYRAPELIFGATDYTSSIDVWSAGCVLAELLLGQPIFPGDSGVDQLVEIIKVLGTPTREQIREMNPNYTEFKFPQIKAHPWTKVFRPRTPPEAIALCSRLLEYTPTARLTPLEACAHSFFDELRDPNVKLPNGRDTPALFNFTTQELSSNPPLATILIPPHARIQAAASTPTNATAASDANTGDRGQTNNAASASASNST
row,Compound,IC50 [nM]
1,"CC(C)N1CCC(c2nc3cc(-c4ccc(Cl)cc4Cl)nc(N4CCCC(Nc5ccc(C(=O)C(F)(F)F)c(N)n5)C4)n3n2)CC1 (stereo not drawn) [Example 5, 1-{2-Amino-6-[(1-{7-(2,4-dichlorophenyl)-2-[1-(propan-2-yl)piperidin-4-yl][1,2,4]triazolo[1,5-c]-pyrimidin-5-yl}piperidin-3-yl)amino]pyridin-3-yl}-2,2,2-trifluoroethanone]",10
2,"CC(C)N1CCC(c2nc3cc(-c4ccc(F)cc4Cl)nc(N4CCCC(Nc5ccc(C(=O)C(F)(F)F)c(N)n5)C4)n3n2)CC1 (racemic) [Example Ent-A-13, 1-{2-Amino-6-[(1-{7-(2-chloro-4-fluorophenyl)-2-[1-(propan-2-yl)piperidin-4-yl][1,2,4]-triazolo[1,5-c]pyrimidin-5-yl}piperidin-3-yl)amino]pyridin-3-yl}-2,2,2-trifluoroethanone]",2
3,"CC(C)N1CCC(c2nc3cc(-c4ccc(F)cc4Cl)nc(N4CCCC(Nc5ccc(C(=O)C(F)(F)F)c(N)n5)C4)n3n2)CC1 (racemic) [Example 13, 1-{2-Amino-6-[(1-{7-(2-chloro-4-fluorophenyl)-2-[1-(propan-2-yl)piperidin-4-yl][1,2,4]-triazolo[1,5-c]pyrimidin-5-yl}piperidin-3-yl)amino]pyridin-3-yl}-2,2,2-trifluoroethanone]",4
4,"Nc1nc(NCCNc2nc(-c3ccc(Cl)cc3Cl)cc3nc(C4CCN(CC5CC5)CC4)nn23)ccc1C(=O)C(F)(F)F [Example 21, 1-(2-Amino-6-{[2-({2-[1-(cyclopropylmethyl)piperidin-4-yl]-7-(2,4-dichlorophenyl)-[1,2,4]triazolo[1,5-c]pyrimidin-5-yl}amino)ethyl]amino}pyridin-3-yl)-2,2,2-trifluoroethanone]",20
5,"CC(C)N1CCC(c2nc3cc(-c4ccc(Cl)cc4Cl)nc(NCCNc4ccc(C(=O)C(F)(F)F)c(N)n4)n3n2)CC1 [Example 1, 1-(2-Amino-6-{[2-({7-(2,4-dichlorophenyl)-2-[1-(propan-2-yl)piperidin-4-yl][1,2,4]triazolo[1,5-c]-pyrimidin-5-yl}amino)ethyl]amino}pyridin-3-yl)-2,2,2-trifluoroethanone]",15
6,"Nc1nc(NCCNc2nc(-c3ccc(Cl)cc3Cl)cc3nc(C4CCN(CC(=O)O)CC4)nn23)ccc1C(=O)C(F)(F)F [Example 23, (4-{5-[(2-{[6-Amino-5-(trifluoroacetyl)pyridin-2-yl]amino}ethyl)amino]-7-(2,4-dichlorophenyl)-[1,2,4]triazolo[1,5-c]pyrimidin-2-yl}piperidin-1-yl)acetic acid]",9
